How the values were obtained:
[1] = test system: PHGDH-independent cell lines (ZR-75-1, SK-MEL-2); experiment: Cytotoxicity (Cell Titer-Glo), other PHGDH-independent cell lines; format: cell-based, human
Experimental: (§1) Knockdown of PHGDH is selectively toxic towards PHGDH-dependent cell lines, and minimally toxic towards PHGDH-independent cell lines. […] Cell count was determined by quantitating the amount of ATP present with CellTitreGlo® measurements 96 hours after dosage.
(§2) Cells were seeded in white 96-well plates (Greiner) at a density of 2000 cells/well (MDA-MB-468, BT-20, MT-3) or 1000 cells/well (all other cell lines) and allowed to attach for 24 hours. Compounds were prepared in DMSO and dispensed using an HP D300 compound dispenser. Cell viability was assessed with Cell Titer-Glo (Promega) at four days following treatment and luminescence measured with a SpectraMax M5 Plate Reader (Molecular Devices). Luminescence was normalized to an untreated control in identical medium. For rescue experiments, RPMI was supplemented with 40 μM adenosine, uridine, guanosine, cytidine, deoxyadenosine, thymidine, deoxyguanosine, and deoxycytidine and the medium was replaced daily.

[2] = test system: MDA-MB-468 orthotopic xenografts; experiment: MDA-MB-468 orthotopic xenografts; format: in vivo, mouse; details: 40 mg/kg daily, IP
Experimental: (§3) Female NOD.CB17-Prkdc^scid/J mice, 6-8 weeks old, were obtained from Jackson Laboratories. All animals were provided with food ad libitum for the duration for the duration of the experiment. The animals were allocated randomly for induction with MDA-MB-231 or MDA-MB-468 tumors and tumor group was assigned blindly. 500,000 MDA-MB-231 or MDA-MB-468 cells were injected into the 4th mammary fat pad of each mouse. After 30 days, the tumors were palpable, and the mice were pooled by tumor type and divided randomly to two groups, which were assigned blindly to vehicle or NCT-503 treatment. […] Caliper measurements were obtained twice weekly and tumor volumes were calculated with the modified ellipsoid formula: volume=0.5×width^2×length.
For quantitation of necrotic regions, fixed tumors were embedded and sections stained with hematoxylin and eosin. Slides were scanned with a Leica Aperio AT2 brightfield scanner. Tumor and necrotic cross-sectional regions were manually delineated and measured using Leica ImageScope software to calculate the percentage of necrosis.

Solubility = format: physicochemical
[3] = Body weight of treated xenograft mice; format: in vivo, mouse; details: 24-day treatment
Experimental: as §3

GPD1L = GPD1L (Homo sapiens (Human), UniProt Q8N335); experiment: Counter-screen against GPD1L; format: biochemical; details: Table E11
Experimental: GAPDH substrate buffer contained 210 mM Tris pH 7.4, 2.5 mM NaH2PO4 pH 7.4, 2 mM DL-Glyceraldehyde 3-phosphate, 1.75 mM MgCl2, 0.01 mM NAD+, 0.11 mM resazurin, 0.2 mg/mL BSA, and 0.01% Tween-20. GAPDH enzyme buffer contained 50 mM Tris pH 7.4, 100 mM NaCl, 0.02 mM TCEP, 0.01 mM EDTA, 0.1 mg/mL BSA, 0.42 mg/mL diaphorase, and 2.5 nM GAPDH. The GAPDH, GPD1, and GPD1L assays were run in 384-well plates using the same protocol and readout as the PHGDH assay. […] GPD1 enzyme buffer contained 50 mM Tris pH 7.4, 100 mM NaCl, 0.08 mM TCEP, 0.4 mg/mL BSA, 0.03 μM EDTA, and 0.8 nM GPD1. 70 μL of substrate buffer were mixed with 10 μL enzyme buffer. GPD1L substrate buffer contained 200 mM Tris pH 7.4, 0.05 mM sn-G3-P, 2 mM MgCl2, 0.04 mM NAD+, 0.11 mM resazurin, 0.1 mg/mL BSA, and 0.02% Tween-20. GPD1L enzyme buffer contained 50 mM Tris pH 7.4, 100 mM NaCl, 0.02 mM TCEP, 0.42 mg/mL diaphorase, 0.1 mg/mL BSA, 0.008 μM EDTA, and 16 nM GPD1L. 40 μL of substrate buffer were mixed with 40 μL of enzyme buffer.
The GAPDH and GPD1L assays were read using the same protocol as the PHGDH assay. The GPD1 assay was read using loss of NADH fluorescence (λex=340 nm and λem=460 nm).

PHGDH = PHGDH (Homo sapiens (Human), UniProt O43175); experiment: Inhibitor kinetics: competition against substrates and dilution experiments; format: biochemical; details: Lineweaver-Burk
Source text: Destabilization has been previously observed in the specific binding of small molecules to their protein targets (see, e.g., Hamiaux, C. et al. “DAD2 is an α/β hydrolase likely to be involved in the perception of the plant branching hormone, strigolactone.” Curr Biol 22, 2032-2036 (2012)).

[4] = test system: PHGDH-dependent cell lines (MDA-MB-468, BT-20, HCC70, HT1080, and MT-3); experiment: Cytotoxicity (Cell Titer-Glo), PHGDH-dependent cell lines; format: cell-based; details: Homo sapiens
Experimental: as §1, §2

[5] = Pharmacokinetics after intraperitoneal administration; format: in vivo
panel of 168 GPCRs = experiment: Cross-reactivity in a panel of 168 GPCRs
MDA-MB-468 tumors = experiment: U-13C-glucose infusion in mice bearing MDA-MB-468 tumors (target engagement); format: in vivo, mouse
Experimental: Thus, the PHGDH inhibitors described herein engage PHGDH in tumors and recapitulate the selective toxicity of PHGDH knockdown in vivo.
Chronic catheters were surgically implanted into the jugular veins of normal or tumor bearing animals 3-4 days prior to infusions. Animals were fasted for 6 hours (morning fast) and infusions were performed in free-moving, conscious animals at 1:00 pm for all studies to minimize metabolic changes associated with circadian rhythm. […] Animals were terminally anesthetized with sodium pentobarbital and all tissues were fully harvested in less than 5 minutes to preserve the metabolic state. Tumors and adjacent lung tissue were carefully dissected and rapidly frozen using a BioSqueezer (BioSpec Products) to ensure rapid quenching of metabolism throughout the tissue section. Tissues were stored at −80 C and extracted with 80:20 (v/v) methanol:water in the same manner as cells prior to LCMS analysis.

[6] = test system: serine biosynthetic pathway; experiment: Labeled serine in brain after tail vein injection of 13C glucose; format: in vivo, mouse; details: 35 mg/kg
Experimental: The mice were sacrificed at the indicated times, and the fraction of labeled serine in the brain was determined by LC-MS and normalized to the fraction of labeled lactate (FIG. 4J).

Sequence of PHGDH (O43175 whole entry): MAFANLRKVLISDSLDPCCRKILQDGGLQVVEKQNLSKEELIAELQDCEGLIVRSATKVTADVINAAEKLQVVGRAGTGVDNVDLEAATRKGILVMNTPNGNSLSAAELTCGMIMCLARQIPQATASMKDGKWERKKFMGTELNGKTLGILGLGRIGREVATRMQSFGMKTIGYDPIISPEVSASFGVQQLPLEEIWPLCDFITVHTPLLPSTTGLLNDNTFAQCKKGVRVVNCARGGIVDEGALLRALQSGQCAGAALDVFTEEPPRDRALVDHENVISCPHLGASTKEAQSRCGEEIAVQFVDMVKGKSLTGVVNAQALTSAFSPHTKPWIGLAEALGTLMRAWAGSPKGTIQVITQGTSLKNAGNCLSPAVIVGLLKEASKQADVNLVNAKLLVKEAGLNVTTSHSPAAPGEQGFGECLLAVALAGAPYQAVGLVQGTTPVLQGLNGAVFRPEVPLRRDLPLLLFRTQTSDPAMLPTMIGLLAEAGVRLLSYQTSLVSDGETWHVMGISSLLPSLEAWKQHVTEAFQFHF
Sequence of GPD1L (Q8N335 whole entry): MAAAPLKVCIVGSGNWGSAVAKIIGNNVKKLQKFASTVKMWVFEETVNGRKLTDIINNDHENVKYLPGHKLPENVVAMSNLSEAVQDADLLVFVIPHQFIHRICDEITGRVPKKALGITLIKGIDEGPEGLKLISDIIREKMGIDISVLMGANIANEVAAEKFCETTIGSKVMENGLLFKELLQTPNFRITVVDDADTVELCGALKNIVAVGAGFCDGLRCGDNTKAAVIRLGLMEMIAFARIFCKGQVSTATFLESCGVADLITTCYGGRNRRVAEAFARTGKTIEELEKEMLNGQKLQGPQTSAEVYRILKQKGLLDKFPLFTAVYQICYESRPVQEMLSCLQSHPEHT

Compound: Cc1cc(C)nc(NC(=S)N2CCN(Cc3ccc(C(F)(F)F)cc3)CC2)c1 [Compound 267, N-(4,6-dimethylpyridin-2-yl)-4-(4-(trifluoromethyl)benzyl)piperazine-1-carbothioamide]
- toxicity [1]: no toxicity
- fraction of necrosis [2]: increases the fraction of necrosis
- growth and weight of xenografts [2]: reduced the growth and weight
- aqueous solubility (Solubility): reasonable aqueous solubility
- body weight of mice [3]: did not lose weight
- IC50 (GPD1L): ≥ 100 µM
- type of inhibition with respect to 3-PG (PHGDH): mixed-mode inhibition
- type of inhibition with respect to NAD+ (PHGDH): non-competitive inhibition
- EC50 [4]: 8 to 16 µM
- partitioning into the liver and brain [5]: significant partitioning
- cross-reactivity, modulation of activity (panel of 168 GPCRs): < 30%
- production of glucose-derived serine in tumors (MDA-MB-468 tumors): decreased production
- incorporation of carbon-13 from glucose into serine in the brain [6]: block incorporation

— patent publication US11225469B2, “Inhibitors of phosphoglycerate dehydrogenase (PHGDH) and uses thereof” (Whitehead Institute for Biomedical Research, priority 2015, dated 2022)
